Assay results as given in patent publication US9028856B2, “Synergistic pesticide compositions” (priority 2008, dated 2015).

Legend:
[1] = tested on: malaria mosquito (Anopheles gambiae); assay: Five-minute exposure bioassay, WHO Adult Mosquito Susceptibility Test Kit, treated filter paper; type: in vivo; settings: for KT 50 / KT 95 / % knock down after 10′ / % knock down after 15′ / % knock down after 20′ / % knock down after 25′ / % knock down after 30′ / % knock down after 45′ / % knock down after 60′ / % mortality 1 d: Table 80, filter paper (mg/m^2); for % mortality 1 d: mortality 24 hours post exposure; for % knock down after 5′: Table 80, technical sample on filter paper (mg/m^2)
Method: The bioassays were carried out using the WHO Adult Mosquito Susceptibility Test Kit, (WHO/VBC 81.805, 1981) with plastic cylinders (4.5 cm diameter, 12 cm height). All bioassays were done using preferably female sugar fed Anopheles gambiae mosquitoes. Knock down was recorded after at 5, 10, 15, 20, 25, 30, 45 and 60 minutes, when the mosquitoes were supplied with a 5% sugar water source for 24 hours. Mortality was recorded 24 hours post exposure. Each test consisted of three replicates from which the mean values were calculated. The insecticides (all technical grades) were applied as 2 ml acetone solutions onto filter papers (12 cm×15 cm).

Aedes aegypti mosquito = assay: USDA Petri Dish Method, 3 min exposure to dipped fiberglass window screen; type: in vivo; settings: dipped screen, 3 min exposure
Method: MATERIALS AND METHODS: Aqueous solutions of 1% deltamethrin with and without an adjuvant composition, which is sold under the tradename Suspend® SC. […] Pre-cut fiberglass screen (5″×5″, or 161.3 cm^2) were dipped in each treatment solution and excessive solution was allowed to drain completely (see FIG. 23 a). Weight of the solution coated on the screen was then determined. The treated screen was then allowed to air-dry overnight. USDA Petri Dish Method was used as initial screening protocol (see FIG. 23 b). Twenty, 4-6 day old female Aedes aegypti were exposed to treated window screen for 3 minutes and then moved onto a clean untreated white paper index card. Treatments were replicated a minimum of three times. Mosquito knockdown was evaluated at 3 minute intervals for the first 15 minutes and then at 5 minute intervals for the remainder of an hour. A small cotton ball with sucrose solution was added on the screen top of the Petri dish as a drinking source. Mortality was evaluated at 24 hours after exposure.
MATERIALS AND METHODS: Several rates of permethrin without adjuvant were prepared using product sold under the tradename Permanone® 40 to determine an effective rate against Aedes aegypti mosquitoes. After determining an effective rate range, aqueous solutions of permethrin at 1.25, 1.0 and 0.05% AI were prepared with and without adjuvant. […] Pre-cut fiberglass screens (5″×5″ or 161.3 cm^2) were dipped in each treatment solution allowing excessive solution to drain completely. Weight of the solution coated on the screen was then determined. The treated screen was then allowed to air-dry overnight. USDA Petri Dish Method was used as initial screening protocol (see photo, right). Twenty, 4-6 day old female Aedes aegypti were exposed to treated window screen for 3 minutes and then moved to a clean untreated white paper index card. Treatments were replicated a minimum of three times. Mosquito knockdown was evaluated at 3 minute intervals for the first 15 minutes and then at 5 minute intervals for the remainder of an hour. A small cotton ball with sucrose solution was added on the screen top of the petri-dish as a drinking source. Mortality was evaluated at 24 hours after exposure.

[2] = Table 39, permethrin without adjuvant (Permanone 40)
[3] = Table 40, aqueous permethrin/adjuvant

SMILES | Average % Knockdown & Mortality after 3 min (Aedes aegypti mosquito; [2]) [%] | Average % Knockdown & Mortality after 9 min (Aedes aegypti mosquito; [2]) [%] | Average % Knockdown & Mortality after 15 min (Aedes aegypti mosquito; [2]) [%] | Average % Knockdown & Mortality after 30 min (Aedes aegypti mosquito; [2]) [%] | Average % Knockdown & Mortality after 60 min (Aedes aegypti mosquito; [2]) [%] | Average % Knockdown & Mortality after 24 hr (Aedes aegypti mosquito; [2]) [%] | also measured
CC1(C)[C@H](C(=O)O[C@H](C#N)c2cccc(Oc3ccccc3)c2)[C@@H]1C=C(Br)Br [40 mg DTM] | – | – | – | – | – | – | KT 50 [1]: 10 min; KT 95 [1]: 40 min; % knock down after 10′ [1]: 53%; % knock down after 15′ [1]: 66%; % knock down after 20′ [1]: 76%; % knock down after 25′ [1]: 92%; % knock down after 30′ [1]: 97%; % knock down after 45′ [1]: 100%; % knock down after 60′ [1]: 100%; % mortality 1 d [1]: 83%; % knock down after 5′ [1]: 22%
CNC(=O)Oc1cccc2c1OC(C)(C)O2 [40 mg bendiocarb] | – | – | – | – | – | – | KT 50 [1]: 12 min; KT 95 [1]: >60 min; % knock down after 10′ [1]: 50%; % knock down after 15′ [1]: 56%; % knock down after 20′ [1]: 68%; % knock down after 25′ [1]: 74%; % knock down after 30′ [1]: 76%; % knock down after 45′ [1]: 81%; % knock down after 60′ [1]: 85%; % mortality 1 d [1]: 94%; % knock down after 5′ [1]: 16%
CC1(C)C(C=C(Cl)Cl)C1C(=O)OCc1cccc(Oc2ccccc2)c1 (stereo not shown) [Permethrin (0.1%)] | 0 | 0 | 0 | 0 | 0 | 5 | –
CC1(C)C(C=C(Cl)Cl)C1C(=O)OCc1cccc(Oc2ccccc2)c1 (stereo not shown) [Permethrin (1.0%)] | 0 | 2 | 2 | 5 | 18 | 34 | Average % Knockdown & Mortality after 3 min (Aedes aegypti mosquito; [3]): 2%; Average % Knockdown & Mortality after 9 min (Aedes aegypti mosquito; [3]): 2%; Average % Knockdown & Mortality after 15 min (Aedes aegypti mosquito; [3]): 2%; Average % Knockdown & Mortality after 30 min (Aedes aegypti mosquito; [3]): 4%; Average % Knockdown & Mortality after 60 min (Aedes aegypti mosquito; [3]): 13%; Average % Knockdown & Mortality after 24 hr (Aedes aegypti mosquito; [3]): 28%
CC1(C)C(C=C(Cl)Cl)C1C(=O)OCc1cccc(Oc2ccccc2)c1 (stereo not shown) [Permethrin (1.5%)] | 0 | 0 | 2 | 2 | 3 | 16 | –
CC1(C)C(C=C(Cl)Cl)C1C(=O)OCc1cccc(Oc2ccccc2)c1 (stereo not shown) [Permethrin (1.25%)] | 46 | 71 | 71 | 72 | 79 | 82 | Average % Knockdown & Mortality after 3 min (Aedes aegypti mosquito; [3]): 0%; Average % Knockdown & Mortality after 9 min (Aedes aegypti mosquito; [3]): 0%; Average % Knockdown & Mortality after 15 min (Aedes aegypti mosquito; [3]): 2%; Average % Knockdown & Mortality after 30 min (Aedes aegypti mosquito; [3]): 2%; Average % Knockdown & Mortality after 60 min (Aedes aegypti mosquito; [3]): 3%; Average % Knockdown & Mortality after 24 hr (Aedes aegypti mosquito; [3]): 7%
CC1(C)C(C=C(Cl)Cl)C1C(=O)OCc1cccc(Oc2ccccc2)c1 (stereo not shown) [Permethrin (1.75%)] | 40 | 95 | 100 | 100 | 100 | 100 | –
CC1(C)C(C=C(Cl)Cl)C1C(=O)OCc1cccc(Oc2ccccc2)c1 (stereo not shown) [Permethrin (2.5%)] | 56 | 100 | 100 | 100 | 100 | 100 | –
CC1(C)C(C=C(Cl)Cl)C1C(=O)OCc1cccc(Oc2ccccc2)c1 (stereo not shown) [Permethrin (5%)] | 75 | 100 | 100 | 100 | 100 | 100 | –
